Reference: ChEMBL document CHEMBL1201862, “PubChem BioAssay data set” (2004)
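How tested: cells in 96-well plates exposed to compound for 48 hours at five concentrations. GI50 marks 50% less growth.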 The source made the active and inactive calls. No stated cut-off is given here; in the data, active = GI50 up to about 1.1 µM and inactive = higher.

What was measured:
Test in all cases: NCI anticancer screen, dose series, 48 h
[1] = test system: A549
[2] = test system: CAKI-1
[3] = test system: COLO 205
[4] = test system: HCT-116
[5] = test system: HCT-15
[6] = test system: HOP-92
[7] = test system: HT-29
[8] = test system: KM12
[9] = test system: M14
[10] = test system: MCF7
[11] = test system: NCI-H226
[12] = test system: NCI-H522
[13] = test system: NCI/ADR-RES
[14] = test system: OVCAR-3
[15] = test system: RXF 393
[16] = test system: SF-295
[17] = test system: SK-MEL-28
[18] = test system: SK-MEL-5
[19] = test system: UACC-257
[20] = test system: NCI-H460

Compound	GI50 [1]	GI50 [2]	GI50 [3]	GI50 [4]	GI50 [5] [µM]	GI50 [6]	GI50 [7]	GI50 [8]	GI50 [9]	GI50 [10]	GI50 [11]	GI50 [12]	GI50 [13]	GI50 [14]	GI50 [15]	GI50 [16]	GI50 [17]	GI50 [18]	GI50 [19]	GI50 [20]
O=C(NCCCNC(=O)c1ccc2c(O)c(O)ccc2c1)c1ccc2c(O)c(O)ccc2c1	32.3 µM (inactive)	> 63 µM (inactive)	22.9 µM (inactive)	32.3 µM (inactive)	27.6	31 µM (inactive)	26.2 µM (inactive)	18.3 µM (inactive)	26.6 µM (inactive)	10.5 µM (inactive)	63 µM (inactive)	23.8 µM (inactive)	38.1 µM (inactive)	22.8 µM (inactive)	27.3 µM (inactive)	19.2 µM (inactive)	97.9 µM (inactive)	20.3 µM (inactive)	21.3 µM (inactive)	
Cc1c2c(c(C)n1-c1ccccc1)C(=O)N(CCCCN1CCN(c3ccccc3)CC1)C2=O	14.5 µM (inactive)	31.1 µM (inactive)	6.62 µM (inactive)	7.71 µM (inactive)	7.74	8.17 µM (inactive)	2.57 µM (inactive)	19.5 µM (inactive)	9.53 µM (inactive)	9.42 µM (inactive)	9.68 µM (inactive)	12.9 µM (inactive)	17 µM (inactive)	8.95 µM (inactive)	14.5 µM (inactive)	14.6 µM (inactive)		3.7 µM (inactive)	5.36 µM (inactive)	11.7 µM (inactive)
CCOC(=O)Cn1nc2ccc(Nc3c(C)[n+]([O-])c4cc(F)c(OCC)cc4[n+]3[O-])cc2n1		> 100 µM (inactive)		> 100 µM (inactive)	> 100	18.2 µM (inactive)	> 100 µM (inactive)	> 100 µM (inactive)	> 100 µM (inactive)	> 100 µM (inactive)	> 100 µM (inactive)	> 100 µM (inactive)	> 100 µM (inactive)	> 100 µM (inactive)	20.7 µM (inactive)	44.2 µM (inactive)	> 100 µM (inactive)	> 100 µM (inactive)	> 100 µM (inactive)	> 100 µM (inactive)
COc1cc2c(cc1[N+](=O)[O-])C(=O)C(Br)(Br)CCC2	4.37 µM (inactive)	2.92 µM (inactive)	1.91 µM (inactive)	0.697 µM (active)	1.66	4.46 µM (inactive)	4.88 µM (inactive)	3.78 µM (inactive)	2.12 µM (inactive)	2.22 µM (inactive)	3.47 µM (inactive)	0.771 µM (active)	2.68 µM (inactive)	3.51 µM (inactive)	1.93 µM (inactive)	6.52 µM (inactive)		1.72 µM (inactive)	13.6 µM (inactive)	6.65 µM (inactive)
Cc1ccc(Nc2cc(=O)[nH]c(=S)[nH]2)cc1	> 100 µM (inactive)	> 100 µM (inactive)	> 100 µM (inactive)	> 100 µM (inactive)	> 100	> 100 µM (inactive)	> 100 µM (inactive)	> 100 µM (inactive)	> 100 µM (inactive)	> 100 µM (inactive)	> 100 µM (inactive)	> 100 µM (inactive)	> 100 µM (inactive)	> 100 µM (inactive)	> 100 µM (inactive)	> 100 µM (inactive)		> 100 µM (inactive)	> 100 µM (inactive)	> 100 µM (inactive)
C[C@@](O)(/C=C/[C@H]1CC=CC(=O)O1)[C@@H](C[C@@H](O)\C=C/C=C\C=C\CO)OP(=O)(O)O [FOSTRIECIN SODIUM]	9.66 µM (inactive)	1.81 µM (inactive)	3.08 µM (inactive)	3.26 µM (inactive)	5.74	2.27 µM (inactive)	1.75 µM (inactive)	6.08 µM (inactive)	0.634 µM (active)	2.97 µM (inactive)	7.4 µM (inactive)	17.3 µM (inactive)	12.8 µM (inactive)		4.11 µM (inactive)	3.94 µM (inactive)	7.28 µM (inactive)	4.67 µM (inactive)	4.94 µM (inactive)	10.4 µM (inactive)
